From patent US20210154268A1, “COMBINATION THERAPY USING A PEPTIDE” (CYTOVATION AS, priority 2018, published 2021)
Where no end group is shown, it is not given here. [ ]: non-standard residue; d: D form.

What was measured:
[1] = system: MC38 colon carcinoma cells; assay: MC38 colon carcinoma mouse model, tumour volume by caliper; type: in vivo; settings: female C57/BL6N mice with MC38 tumours; CyPep-1 2 mg/kg intratumoural days 1 and 2; anti-PD-1 antibody 5 mg/kg intraperitoneal days 4, 8, 11, 15; unpaired two-tailed t-test; combination P=0.02
Experimental: Female C57/BL6N mice were shaved at the intended site of tumour inoculation. 4 days later the mice were implanted with 5×10^5 MC38 colon carcinoma cells in a mixture of 50% PBS and 50% matrigel in a total injection volume of 100 μl.
Tumour sizes were measured by caliper. When the median tumour volume reached 100 mm^3, 40 mice were randomised to four groups: 1) Ctr_IT; 2) Ctr_IT_PD1; 3) CyPep_IT; and 4) CyPep_IT_PD1.
The Ctr_IT group were administered 0.05 ml/kg intratumoural PBS on days 1 and 2.
The Ctr_IT_PD1 group were administered 0.05 ml/kg/day intratumoural PBS on days 1 and 2, and 5 mg/kg intraperitoneal anti-PD-1 antibody on days 4, 8, 11 and 15. The anti-PD-1 antibody was administered in PBS at a concentration of 1 mg/ml.
The CyPep_IT group were administered 2 mg/kg CyPep-1 on days 1 and 2. Administration was intratumoural in PBS at a concentration of 40 mg/ml.
The CyPep_IT_PD1 group were administered 2 mg/kg intratumoural CyPep-1 in PBS at a concentration of 40 mg/ml on days 1 and 2; and 5 mg/kg intraperitoneal anti-PD-1 antibody on days 4, 8, 11 and 15, in PBS at a concentration of 1 mg/ml.
All groups were standardised prior to checkpoint inhibitor administration by excluding animals with tumours+/−>2X average at day three. […] Average tumour volumes of the groups were analysed by unpaired two-tailed t-test, and the tumours were also histologically analysed.

[2] = system: tumour; settings: animal models of disease; cited from earlier work
[3] = system: Gram-positive and Gram-negative bacteria; settings: medically-relevant species of Gram-positive and Gram-negative bacteria; cited from earlier work
[4] = system: cancer cells; settings: in vitro; cited from earlier work

For “CyPep-1: all D-amino acid peptide of SEQ ID NO: 1; Conductin/Axin2 fragment coupled to the C-terminus of the HIV-TAT cell-penetrating peptide ([dY]G[dR][dK][dK][dR][dR][dQ][dR][dR][dR]G[dK][dT][dL][dR][dV][dA][dK][dA][dI][dY][dK][dR][dY][dI][dE])”, the “tumour growth compared to the control group which received only PBS” value [1] is listed as “no statistically-significant difference”, the anti-tumour effect [2] is listed as “strong anti-tumour effect” and the tolerability [2] is listed as “well tolerated”. The bacteriocidal effect [3] was “potent bacteriocidal effect” and the “selective cytotoxicity towards cancer cells” value [4] was “selectively cytotoxic towards cancer cells”.
